Laboratory results: PubChem BioAssay AID330 (DTP/NCI, 2004)
Where “and” joins values, the source holds several entries; their conditions need not be identical. Identical values can stand only once. Inconclusive results and toxic doses are left out. The calls were made as follows: active = survival T/C of 150% or more; inactive = T/C below 125% in these data.

System: P388 leukemia ip, CD2F1 mice, survival T/C
Experiment: NCI In Vivo Anticancer Drug Screen. Data for tumor model P388 Leukemia (intraperitoneal) in CD2F1 (CDF1) mice
Conditions: endpoint: median survival time, higher = longer survival
Procedure, shortened: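 Mice carrying the transplanted tumor received test compound or vehicle. Survival was recorded in each group, and the value is the treated-group measurement divided by that of the vehicle-treated control group.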

[1] = dose: 60.0 mg/kg/injection, schedule: Q01DX005 (ip), vehicle: saline with Tween-80
[2] = dose: 120.0 mg/kg/injection, schedule: Q01DX005 (ip), vehicle: saline with Tween-80
[3] = dose: 240.0 mg/kg/injection, schedule: Q01DX005 (ip), vehicle: saline with Tween-80
[4] = dose: 50.0 mg/kg/injection, schedule: Q01DX005 (ip), vehicle: Klucel (hydroxypropylcellulose) (HPC)
[5] = dose: 100.0 mg/kg/injection, schedule: Q01DX005 (ip), vehicle: Klucel (hydroxypropylcellulose) (HPC)
[6] = dose: 200.0 mg/kg/injection, schedule: Q01DX005 (ip), vehicle: Klucel (hydroxypropylcellulose) (HPC)
[7] = dose: 50.0 mg/kg/injection, schedule: Q01DX005 (ip), vehicle: saline with Tween-80
[8] = dose: 100.0 mg/kg/injection, schedule: Q01DX005 (ip), vehicle: saline with Tween-80
[9] = dose: 200.0 mg/kg/injection, schedule: Q01DX005 (ip), vehicle: saline with Tween-80
[10] = dose: 50.0 mg/kg/injection, schedule: Q01DX001 (ip), vehicle: Klucel (hydroxypropylcellulose) (HPC)
[11] = dose: 50.0 mg/kg/injection, schedule: Q01DX009 (ip), vehicle: saline
[12] = dose: 100.0 mg/kg/injection, schedule: Q01DX009 (ip), vehicle: saline
[13] = dose: 25.0 mg/kg/injection, schedule: Q01DX009 (ip), vehicle: saline with Tween-80
[14] = dose: 50.0 mg/kg/injection, schedule: Q01DX009 (ip), vehicle: saline with Tween-80
[15] = dose: 100.0 mg/kg/injection, schedule: Q01DX009 (ip), vehicle: saline with Tween-80
[16] = dose: 200.0 mg/kg/injection, schedule: Q01DX009 (ip), vehicle: saline with Tween-80

Measured: T/C

Cc1cc(=O)oc2cc(OC(=O)C(CCCCN)NC(=O)OCc3ccccc3)ccc12 (configuration not stated)
inactive: dose: 6.25 mg/kg/injection, schedule: Q01DX009 (ip), vehicle: other 101 % of control | dose: 12.5 mg/kg/injection, schedule: Q01DX009 (ip), vehicle: other 99 % of control | dose: 25.0 mg/kg/injection, schedule: Q01DX009 (ip), vehicle: other 121 % of control | dose: 50.0 mg/kg/injection, schedule: Q01DX009 (ip), vehicle: other 114 % of control | dose: 100.0 mg/kg/injection, schedule: Q01DX009 (ip), vehicle: other 117 % of control

COc1cc2c3cc1Oc1c(OC)c(OC)cc4c1[C@@H](Cc1ccc(OC)c(c1OC)Oc1ccc(cc1)C[C@@H]3N(C)CC2)N(C)CC4
inactive: dose: 3.63 mg/kg/injection, schedule: Q01DX005 (ip), vehicle: Klucel (hydroxypropylcellulose) (HPC) 103 % of control | dose: 7.25 mg/kg/injection, schedule: Q01DX005 (ip), vehicle: Klucel (hydroxypropylcellulose) (HPC) 99 % of control | dose: 14.5 mg/kg/injection, schedule: Q01DX005 (ip), vehicle: Klucel (hydroxypropylcellulose) (HPC) 102 % of control | dose: 29.0 mg/kg/injection, schedule: Q01DX005 (ip), vehicle: Klucel (hydroxypropylcellulose) (HPC) 93 % of control | dose: 58.0 mg/kg/injection, schedule: Q01DX005 (ip), vehicle: Klucel (hydroxypropylcellulose) (HPC) 109 % of control

O=C1NCCN=C1Cc1ccccc1
inactive: dose: 100.0 mg/kg/injection, schedule: Q04DX002 (ip), vehicle: saline with Tween-80 93 % of control | dose: 200.0 mg/kg/injection, schedule: Q04DX002 (ip), vehicle: saline with Tween-80 100 % of control | dose: 400.0 mg/kg/injection, schedule: Q04DX002 (ip), vehicle: saline with Tween-80 95 % of control

CC1CCCC(C)N1C1=NCCO1 (configuration not stated)
inactive: dose: 5.0 mg/kg/injection, schedule: Q04DX003 (ip), vehicle: saline 95 % of control | dose: 10.0 mg/kg/injection, schedule: Q04DX003 (ip), vehicle: saline 100 % of control | dose: 20.0 mg/kg/injection, schedule: Q04DX003 (ip), vehicle: saline 95 % of control

Cc1cccc(-n2c(=O)c3[nH]c4ccccc4sc=3c2=O)c1
inactive: [1] 104 % of control | [2] 107 % of control | [3] 92 % of control

O=C(/C=C/c1ccc(Cl)cc1)NC1C=Nc2ccc([N+](=O)[O-])cc2NC1=O (configuration not stated)
inactive: [1] 105 % of control | [2] 100 % of control | [3] 98 % of control

CC(C)CCOC(=O)CN(CC(=O)OCCC(C)C)c1ccccc1
inactive: dose: 100.0 mg/kg/injection, schedule: Q04DX003 (ip), vehicle: saline with Tween-80 104 % of control | dose: 200.0 mg/kg/injection, schedule: Q04DX003 (ip), vehicle: saline with Tween-80 100 % of control | dose: 400.0 mg/kg/injection, schedule: Q04DX003 (ip), vehicle: saline with Tween-80 95 % of control

CN1C2C=C(c3ccc(C(F)(F)F)cc3)CC1CC2 (configuration not stated)
inactive: dose: 25.0 mg/kg/injection, schedule: Q01DX005 (ip), vehicle: Klucel (hydroxypropylcellulose) (HPC) 100 % of control and 107 % of control | [4] 106 % of control | dose: 50.0 mg/kg/injection, schedule: Q01DX005 (ip), vehicle: saline 102 % of control | [5] 98 % of control | dose: 100.0 mg/kg/injection, schedule: Q01DX005 (ip), vehicle: saline 104 % of control

CC(C)(C)OC(=O)NC(CSCc1ccccc1)C(=O)ON1C(=O)CCC1=O (configuration not stated)
inactive: [4] 100 % of control | [5] 98 % of control | [6] 94 % of control

CCc1cccc2c3c([nH]c12)C(CC)(CC(=O)O)OCC3 (configuration not stated)
inactive: dose: 50.0 mg/kg/injection, schedule: Q01DX009 (ip), vehicle: Klucel (hydroxypropylcellulose) (HPC) 102 % of control | dose: 100.0 mg/kg/injection, schedule: Q01DX009 (ip), vehicle: Klucel (hydroxypropylcellulose) (HPC) 110 % of control | dose: 200.0 mg/kg/injection, schedule: Q01DX009 (ip), vehicle: Klucel (hydroxypropylcellulose) (HPC) 107 % of control

CC1=CC(=N/Br)/C=CC/1=N/Br
inactive: [7] 108 % of control | [8] 100 % of control | [9] 99 % of control

CC(C)C(NC(=O)C1CSC(C)(C)N1C=O)C(=O)O (configuration not stated)
inactive: [7] 102 % of control | [8] 100 % of control | [9] 102 % of control

C[C@@H]1CN(c2ccccc2)C[C@H](C)OS(=O)O1 (some centres not stated)
inactive: [10] 105 % of control | [4] 96 % of control | dose: 100.0 mg/kg/injection, schedule: Q01DX001 (ip), vehicle: Klucel (hydroxypropylcellulose) (HPC) 103 % of control | [5] 100 % of control | dose: 200.0 mg/kg/injection, schedule: Q01DX001 (ip), vehicle: Klucel (hydroxypropylcellulose) (HPC) 97 % of control | [6] 93 % of control

CCC[CH2][Sn]([CH2]CCC)([S]CC(=O)OCc1ccccc1)[S]CC(=O)OCc1ccccc1
inactive: dose: 12.5 mg/kg/injection, schedule: Q01DX001 (ip), vehicle: Klucel (hydroxypropylcellulose) (HPC) 108 % of control | dose: 25.0 mg/kg/injection, schedule: Q01DX001 (ip), vehicle: Klucel (hydroxypropylcellulose) (HPC) 116 % of control | [10] 108 % of control

C=CN=NNc1ccccc1OC
inactive: dose: 100.0 mg/kg/injection, schedule: Q04DX003 (ip), vehicle: saline + Tween-80 + alcohol 107 % of control | dose: 200.0 mg/kg/injection, schedule: Q04DX003 (ip), vehicle: saline + Tween-80 + alcohol 105 % of control | dose: 400.0 mg/kg/injection, schedule: Q04DX003 (ip), vehicle: saline + Tween-80 + alcohol 107 % of control

COc1ccc(-c2c(O)c3cccnc3[nH]c2=O)cc1
inactive: [11] 102 % of control | [12] 104 % of control | dose: 200.0 mg/kg/injection, schedule: Q01DX009 (ip), vehicle: saline 102 % of control

O=C1C2CCCCC2C1(Cl)Cl (configuration not stated)
inactive: [13] 103 % of control | [14] 99 % of control | [15] 118 % of control

c1ccc(-c2[nH]nc3nccnc23)cc1
inactive: [4] 99 % of control | [5] 98 % of control | [6] 98 % of control

CC1(C)CC(=O)C(CC2C(=O)CC(C)(C)CC2=O)C(=O)C1
inactive: [13] 87 % of control | [14] 97 % of control | [15] 103 % of control | [16] 95 % of control

CCCOC(=O)c1nc(N(CC2CCCCC2)C(=O)NC)sc1/N=C/c1ccccc1
inactive: [13] 98 % of control | [14] 94 % of control | [15] 87 % of control

Nc1ccc([N+](=O)[O-])cc1
inactive: dose: 12.5 mg/kg/injection, schedule: Q01DX009 (ip), vehicle: distilled water + Tween-80 102 % of control | dose: 25.0 mg/kg/injection, schedule: Q01DX009 (ip), vehicle: distilled water + Tween-80 100 % of control | dose: 50.0 mg/kg/injection, schedule: Q01DX009 (ip), vehicle: distilled water + Tween-80 103 % of control | dose: 100.0 mg/kg/injection, schedule: Q01DX009 (ip), vehicle: distilled water + Tween-80 103 % of control | dose: 200.0 mg/kg/injection, schedule: Q01DX009 (ip), vehicle: distilled water + Tween-80 102 % of control

CC1CN1P(=O)(OCCCl)N1CC1C (configuration not stated)
inactive: dose: 44.0 mg/kg/injection, schedule: Q04DX003 (ip), vehicle: saline 113 % of control | [11] 120 % of control | dose: 66.0 mg/kg/injection, schedule: Q04DX003 (ip), vehicle: saline 113 % of control | [12] 120 % of control | dose: 100.0 mg/kg/injection, schedule: Q04DX003 (ip), vehicle: saline 118 % of control | dose: 150.0 mg/kg/injection, schedule: Q04DX003 (ip), vehicle: saline 86 % of control

O=C1Nc2ccccc2C(=O)C1(Cc1ccccc1)C(=O)c1ccccc1 (configuration not stated)
inactive: dose: 60.0 mg/kg/injection, schedule: Q01DX005 (ip), vehicle: Klucel (hydroxypropylcellulose) (HPC) 99 % of control | dose: 120.0 mg/kg/injection, schedule: Q01DX005 (ip), vehicle: Klucel (hydroxypropylcellulose) (HPC) 105 % of control | dose: 240.0 mg/kg/injection, schedule: Q01DX005 (ip), vehicle: Klucel (hydroxypropylcellulose) (HPC) 97 % of control

O=C(O)/C(Br)=C/c1ccccc1
inactive: [14] 87 % of control | [15] 91 % of control | [16] 87 % of control
